Test results from patent US11608323B2 (SYNGENTA LIMITED, priority 2013, dated 2023).

How the values were obtained:
Format in all cases: in vivo
ABUTH [1] = experiment: Pre-emergence herbicidal activity, glasshouse pot test; details: rate 1000 g/Ha, evaluated after 13 days, scale 0-5; further: key: 5=total damage to plant; 0=no damage to plant
Method in brief: (§1)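 Seeds sown in standard soil in pots, held one day in glasshouse (24/16 °C day/night, 14 h light, 65% humidity), then sprayed with aqueous solution of compound formulated in acetone/water 50:50 with 0.5% Tween 20. Grown on under same conditions, watered twice daily; damage scored after 13 days (0 = none, 5 = total).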

ALOMY [2] = experiment: as above; details: rate 1000 g/Ha, evaluated after 13 days, scale 0-5
Method in brief: as §1

AMARE [3] = experiment: as above; details: rate 1000 g/Ha, evaluated after 13 days, scale 0-5
Method in brief: as §1

ECHCG [4] = experiment: as above; details: rate 1000 g/Ha, evaluated after 13 days, scale 0-5
Method in brief: as §1

SETFA [5] = experiment: as above; details: rate 1000 g/Ha, evaluated after 13 days, scale 0-5
Method in brief: as §1

ZEAMX [6] = experiment: as above; details: rate 1000 g/Ha, evaluated after 13 days, scale 0-5
Method in brief: as §1

ABUTH [7] = experiment: Post-emergence herbicidal activity, glasshouse pot test; details: Abutilon theophrasti; application post-emergence; rate 1000 g/Ha; evaluated after 13 days; further: key: 5=total damage to plant; 0=no damage to plant
Method in brief: (§2)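 Seeds were sown in standard soil and cultivated for 8 days under controlled glasshouse conditions. Seedlings were then sprayed with an aqueous solution of the formulated compound containing 0.5% Tween 20. Injury was rated after a further 13 days, where 5 indicated total damage.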

ALOMY [8] = experiment: as above; details: Alopecurus myosuroides; application post-emergence; rate 1000 g/Ha; evaluated after 13 days
Method in brief: as §2

AMARE [9] = experiment: as above; details: Amaranthus retroflexus; application post-emergence; rate 1000 g/Ha; evaluated after 13 days
Method in brief: as §2

ECHCG [10] = experiment: as above; details: Echinochloa crus-galli; application post-emergence; rate 1000 g/Ha; evaluated after 13 days
Method in brief: as §2

SETFA [11] = experiment: as above; details: Setaria faberi; application post-emergence; rate 1000 g/Ha; evaluated after 13 days
Method in brief: as §2

ZEAMX [12] = experiment: as above; details: Zea mays; application post-emergence; rate 1000 g/Ha; evaluated after 13 days
Method in brief: as §2
Wherever AMARE damage score, application pre-emergence is given: key: 5=total damage to plant; 0=no damage to plant.
Wherever Post-emergence herbicidal activity ALOMY (damage score 0-5) is given: key: 5=total damage to plant; 0=no damage to plant.
Wherever Post-emergence herbicidal activity AMARE (damage score 0-5) is given: key: 5=total damage to plant; 0=no damage to plant.
Wherever Post-emergence herbicidal activity ECHCG (damage score 0-5) is given: key: 5=total damage to plant; 0=no damage to plant.

CN1C(=O)N(c2cc(C(F)(F)F)ccn2)C(O)C1O (stereo not drawn) [Compound A7, 4,5-dihydroxy-1-methyl-3-[4-(trifluoromethyl)-2-pyridyl]imidazolidin-2-one]
4: ALOMY damage score, application pre-emergence (ALOMY [2]) | SETFA damage score, application pre-emergence (SETFA [5]) | Post-emergence herbicidal activity ALOMY (damage score 0-5) (ALOMY [8]) | Post-emergence herbicidal activity ZEAMX (damage score 0-5) (ZEAMX [12])
5: ABUTH damage score, application pre-emergence (ABUTH [1]) | AMARE damage score, application pre-emergence (AMARE [3]) | Post-emergence herbicidal activity ABUTH (damage score 0-5) (ABUTH [7]) | Post-emergence herbicidal activity AMARE (damage score 0-5) (AMARE [9]) | Post-emergence herbicidal activity ECHCG (damage score 0-5) (ECHCG [10]) | Post-emergence herbicidal activity SETFA (damage score 0-5) (SETFA [11])
3: ECHCG damage score, application pre-emergence (ECHCG [4])
1: ZEAMX damage score, application pre-emergence (ZEAMX [6])

CN1C(=O)N(c2cc(C(F)(F)F)ccn2)C(O)C1OCC(F)(F)F (stereo not drawn) [Compound A39]
5: ABUTH damage score, application pre-emergence (ABUTH [1]) | AMARE damage score, application pre-emergence (AMARE [3]) | Post-emergence herbicidal activity ABUTH (damage score 0-5) (ABUTH [7]) | Post-emergence herbicidal activity ALOMY (damage score 0-5) (ALOMY [8]) | Post-emergence herbicidal activity AMARE (damage score 0-5) (AMARE [9]) | Post-emergence herbicidal activity ECHCG (damage score 0-5) (ECHCG [10]) | Post-emergence herbicidal activity SETFA (damage score 0-5) (SETFA [11])
2: SETFA damage score, application pre-emergence (SETFA [5])
1: ZEAMX damage score, application pre-emergence (ZEAMX [6]) | Post-emergence herbicidal activity ZEAMX (damage score 0-5) (ZEAMX [12])
3: ECHCG damage score, application pre-emergence (ECHCG [4])
4: ALOMY damage score, application pre-emergence (ALOMY [2])

COC1C(O)N(c2cc(C(F)(F)F)ccn2)C(=O)N1C (stereo not drawn) [Compound A5]
5: ABUTH damage score, application pre-emergence (ABUTH [1]) | AMARE damage score, application pre-emergence (AMARE [3]) | Post-emergence herbicidal activity ABUTH (damage score 0-5) (ABUTH [7]) | Post-emergence herbicidal activity AMARE (damage score 0-5) (AMARE [9])
4: ECHCG damage score, application pre-emergence (ECHCG [4]) | SETFA damage score, application pre-emergence (SETFA [5]) | Post-emergence herbicidal activity ALOMY (damage score 0-5) (ALOMY [8]) | Post-emergence herbicidal activity ECHCG (damage score 0-5) (ECHCG [10]) | Post-emergence herbicidal activity SETFA (damage score 0-5) (SETFA [11])
3: ALOMY damage score, application pre-emergence (ALOMY [2])
2: ZEAMX damage score, application pre-emergence (ZEAMX [6]) | Post-emergence herbicidal activity ZEAMX (damage score 0-5) (ZEAMX [12])

CC1C(O)N(c2cc(C(F)(F)F)c(-c3cncnc3)cn2)C(=O)N1C (stereo not drawn) [Compound A11]
3: ZEAMX damage score, application pre-emergence (ZEAMX [6])
5: ABUTH damage score, application pre-emergence (ABUTH [1]) | AMARE damage score, application pre-emergence (AMARE [3]) | SETFA damage score, application pre-emergence (SETFA [5]) | Post-emergence herbicidal activity ABUTH (damage score 0-5) (ABUTH [7]) | Post-emergence herbicidal activity AMARE (damage score 0-5) (AMARE [9]) | Post-emergence herbicidal activity ECHCG (damage score 0-5) (ECHCG [10]) | Post-emergence herbicidal activity SETFA (damage score 0-5) (SETFA [11])
4: ALOMY damage score, application pre-emergence (ALOMY [2]) | ECHCG damage score, application pre-emergence (ECHCG [4]) | Post-emergence herbicidal activity ALOMY (damage score 0-5) (ALOMY [8]) | Post-emergence herbicidal activity ZEAMX (damage score 0-5) (ZEAMX [12])

CCOC1C(O)N(c2cc(C(F)(F)F)c(Cl)cn2)C(=O)N1C (stereo not drawn) [Compound A53]
5: ABUTH damage score, application pre-emergence (ABUTH [1]) | AMARE damage score, application pre-emergence (AMARE [3]) | Post-emergence herbicidal activity ABUTH (damage score 0-5) (ABUTH [7]) | Post-emergence herbicidal activity ALOMY (damage score 0-5) (ALOMY [8]) | Post-emergence herbicidal activity AMARE (damage score 0-5) (AMARE [9]) | Post-emergence herbicidal activity ECHCG (damage score 0-5) (ECHCG [10]) | Post-emergence herbicidal activity SETFA (damage score 0-5) (SETFA [11])
3: Post-emergence herbicidal activity ZEAMX (damage score 0-5) (ZEAMX [12])
2: ZEAMX damage score, application pre-emergence (ZEAMX [6])
4: ALOMY damage score, application pre-emergence (ALOMY [2]) | ECHCG damage score, application pre-emergence (ECHCG [4]) | SETFA damage score, application pre-emergence (SETFA [5])

CC1C(O)N(c2cc(C(C)(C)C)ccn2)C(=O)N1C (single isomer, unassigned) [Compound A30]
2: ZEAMX damage score, application pre-emergence (ZEAMX [6])
3: Post-emergence herbicidal activity ZEAMX (damage score 0-5) (ZEAMX [12])
4: ALOMY damage score, application pre-emergence (ALOMY [2])
5: ABUTH damage score, application pre-emergence (ABUTH [1]) | AMARE damage score, application pre-emergence (AMARE [3]) | ECHCG damage score, application pre-emergence (ECHCG [4]) | SETFA damage score, application pre-emergence (SETFA [5]) | Post-emergence herbicidal activity ABUTH (damage score 0-5) (ABUTH [7]) | Post-emergence herbicidal activity ALOMY (damage score 0-5) (ALOMY [8]) | Post-emergence herbicidal activity AMARE (damage score 0-5) (AMARE [9]) | Post-emergence herbicidal activity ECHCG (damage score 0-5) (ECHCG [10]) | Post-emergence herbicidal activity SETFA (damage score 0-5) (SETFA [11])

COc1ccncc1-c1cnc(N2C(=O)N(C)C(C)C2O)cc1C(F)(F)F (stereo not drawn) [Compound A23]
1: ZEAMX damage score, application pre-emergence (ZEAMX [6])
4: Post-emergence herbicidal activity ALOMY (damage score 0-5) (ALOMY [8]) | Post-emergence herbicidal activity SETFA (damage score 0-5) (SETFA [11])
2: ABUTH damage score, application pre-emergence (ABUTH [1]) | ECHCG damage score, application pre-emergence (ECHCG [4]) | Post-emergence herbicidal activity ECHCG (damage score 0-5) (ECHCG [10]) | Post-emergence herbicidal activity ZEAMX (damage score 0-5) (ZEAMX [12])
3: ALOMY damage score, application pre-emergence (ALOMY [2]) | SETFA damage score, application pre-emergence (SETFA [5])
5: AMARE damage score, application pre-emergence (AMARE [3]) | Post-emergence herbicidal activity ABUTH (damage score 0-5) (ABUTH [7]) | Post-emergence herbicidal activity AMARE (damage score 0-5) (AMARE [9])

CCOC1C(O)N(c2cc(C(F)(F)F)c(C)cn2)C(=O)N1C (stereo not drawn) [Compound A52]
5: ABUTH damage score, application pre-emergence (ABUTH [1]) | AMARE damage score, application pre-emergence (AMARE [3]) | ECHCG damage score, application pre-emergence (ECHCG [4]) | Post-emergence herbicidal activity ABUTH (damage score 0-5) (ABUTH [7]) | Post-emergence herbicidal activity ALOMY (damage score 0-5) (ALOMY [8]) | Post-emergence herbicidal activity AMARE (damage score 0-5) (AMARE [9]) | Post-emergence herbicidal activity ECHCG (damage score 0-5) (ECHCG [10]) | Post-emergence herbicidal activity SETFA (damage score 0-5) (SETFA [11]) | Post-emergence herbicidal activity ZEAMX (damage score 0-5) (ZEAMX [12])
4: ALOMY damage score, application pre-emergence (ALOMY [2]) | SETFA damage score, application pre-emergence (SETFA [5])
2: ZEAMX damage score, application pre-emergence (ZEAMX [6])

COCCOC1C(O)N(c2cc(C(F)(F)F)ccn2)C(=O)N1C (stereo not drawn) [Compound A45]
5: ABUTH damage score, application pre-emergence (ABUTH [1]) | AMARE damage score, application pre-emergence (AMARE [3]) | Post-emergence herbicidal activity ABUTH (damage score 0-5) (ABUTH [7]) | Post-emergence herbicidal activity AMARE (damage score 0-5) (AMARE [9])
1: ZEAMX damage score, application pre-emergence (ZEAMX [6]) | Post-emergence herbicidal activity ZEAMX (damage score 0-5) (ZEAMX [12])
2: ALOMY damage score, application pre-emergence (ALOMY [2]) | Post-emergence herbicidal activity ALOMY (damage score 0-5) (ALOMY [8])
3: ECHCG damage score, application pre-emergence (ECHCG [4]) | SETFA damage score, application pre-emergence (SETFA [5]) | Post-emergence herbicidal activity ECHCG (damage score 0-5) (ECHCG [10]) | Post-emergence herbicidal activity SETFA (damage score 0-5) (SETFA [11])

C[C@H]1C(O)N(c2cc(C(F)(F)F)ccn2)C(=O)N1C (mixture of isomers) [Compound A37, (4R,5S)-4-hydroxy-1,5-dimethyl-3-[4-(trifluoromethyl)-2-pyridyl]imidazolidin-2-one and (4S,5S)-4-hydroxy-1,5-dimethyl-3-[4-(trifluoromethyl)-2-pyridyl]imidazolidin-2-one]
4: ALOMY damage score, application pre-emergence (ALOMY [2]) | SETFA damage score, application pre-emergence (SETFA [5]) | Post-emergence herbicidal activity ZEAMX (damage score 0-5) (ZEAMX [12])
5: ABUTH damage score, application pre-emergence (ABUTH [1]) | AMARE damage score, application pre-emergence (AMARE [3]) | ECHCG damage score, application pre-emergence (ECHCG [4]) | Post-emergence herbicidal activity ABUTH (damage score 0-5) (ABUTH [7]) | Post-emergence herbicidal activity ALOMY (damage score 0-5) (ALOMY [8]) | Post-emergence herbicidal activity AMARE (damage score 0-5) (AMARE [9]) | Post-emergence herbicidal activity ECHCG (damage score 0-5) (ECHCG [10]) | Post-emergence herbicidal activity SETFA (damage score 0-5) (SETFA [11])
3: ZEAMX damage score, application pre-emergence (ZEAMX [6])
